Source: PubChem BioAssay (NCI)
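Here, GI50 denotes the concentration required for 50% inhibition of growth. Definition used: TGI = concentration required for complete inhibition of growth.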

Legend:
Test in all cases: DTP human tumour cell line panel, 384-well format; in the data active means GI50 below about 0.43 µM; inactive means the rest
[1] = system: A549 NSCLC
[2] = system: UACC-257 melanoma
[3] = system: PC-3 prostate
[4] = system: MDA-MB-435 melanoma
[5] = system: HS 578T breast
[6] = system: SF-295 CNS
[7] = system: SNB-75 CNS
[8] = system: LOX IMVI melanoma
[9] = system: MALME-3M melanoma
[10] = system: NCI/ADR-RES ovarian
[11] = system: COLO 205 colon
[12] = system: MDA-MB-231 breast
[13] = system: EKVX NSCLC
[14] = system: SK-MEL-28 melanoma
[15] = system: SNB-19 CNS
[16] = system: ACHN renal
[17] = system: SK-OV-3 ovarian
[18] = system: UO-31 renal
[19] = system: HOP-62 NSCLC
[20] = system: RPMI-8226 leukemia
[21] = system: OVCAR-3 ovarian
[22] = system: CAKI-1 renal
[23] = system: RXF 393 renal
[24] = system: IGROV1 ovarian
[25] = system: OVCAR-4 ovarian
[26] = system: NCI-H23 lung
[27] = system: NCI-H460 NSCLC
[28] = system: SR leukemia
[29] = system: HCT-15 colon
[30] = system: BT-549 breast
[31] = system: CCRF-CEM leukemia
[32] = system: SW-620 colon
[33] = system: OVCAR-5 ovarian
[34] = system: NCI-H322M lung
[35] = system: SF-539 CNS
[36] = system: KM12 colon
[37] = system: UACC-62 melanoma
[38] = system: SN12C renal
[39] = system: OVCAR-8 ovarian
[40] = system: T-47D breast
[41] = system: M14 melanoma
[42] = system: K-562 leukemia
[43] = system: NCI-H522 lung
[44] = system: SF-268 CNS
[45] = system: HT29 colon
[46] = system: MOLT-4 leukemia
[47] = system: HL-60(TB) leukemia
[48] = system: NCI-H226 lung
[49] = system: DU-145 prostate
[50] = system: HOP-92 NSCLC
[51] = system: A498 renal
[52] = system: 786-0 renal
[53] = system: TK-10 renal
[54] = system: U251 glioblastoma
[55] = system: HCC-2998 colon
[56] = system: MCF7 breast
[57] = system: SK-MEL-5 melanoma
[58] = system: MDA-MB-468 breast

Nc1ncnc2c1ccn2[C@@H]1O[C@H]([C@H](O)c2ccc(Cl)c(F)c2)[C@@H](O)[C@H]1O
inactive: GI50 [1] > 100 µM | GI50 [2] > 100 µM | GI50 [3] 97.7 µM | GI50 [4] > 100 µM | GI50 [5] > 100 µM | GI50 [6] > 100 µM | GI50 [7] > 100 µM | GI50 [8] > 100 µM | GI50 [9] 40.9 µM | GI50 [10] > 100 µM | GI50 [11] > 100 µM | GI50 [12] > 100 µM | GI50 [13] 83.9 µM | GI50 [14] > 100 µM | GI50 [15] > 100 µM | GI50 [16] > 100 µM | GI50 [17] 50.3 µM | GI50 [18] > 100 µM | GI50 [19] > 100 µM | GI50 [20] 12.6 µM | GI50 [21] > 100 µM | GI50 [22] > 100 µM | GI50 [23] > 100 µM | GI50 [24] 28.7 µM | GI50 [26] 52.9 µM | GI50 [29] > 100 µM | GI50 [30] > 100 µM | GI50 [31] 33.9 µM | GI50 [32] > 100 µM | GI50 [33] > 100 µM | GI50 [34] > 100 µM | GI50 [35] > 100 µM | GI50 [37] > 100 µM | GI50 [38] 41.6 µM | GI50 [39] > 100 µM | GI50 [41] > 100 µM | GI50 [42] 32.7 µM | GI50 [43] > 100 µM | GI50 [44] > 100 µM | GI50 [45] 37.4 µM | GI50 [47] 77.1 µM | GI50 [48] > 100 µM | GI50 [49] > 100 µM | GI50 [50] > 100 µM | GI50 [51] 85.1 µM | GI50 [52] 72.9 µM | GI50 [53] > 100 µM
active: GI50 [25] < 0.01 µM | GI50 [27] < 0.01 µM | GI50 [28] < 0.01 µM | GI50 [36] < 0.01 µM | GI50 [40] < 0.01 µM | GI50 [46] < 0.01 µM
> 100 µM: TGI [1] | TGI [2] | TGI [3] | TGI [4] | TGI [5] | TGI [6] | TGI [7] | TGI [8] | TGI [9] | TGI [10] | TGI [11] | TGI [12] | TGI [13] | TGI [14] | TGI [15] | TGI [16] | TGI [17] | TGI [18] | TGI [19] | TGI [20] | TGI [21] | TGI [22] | TGI [23] | TGI [24] | TGI [25] | TGI [26] | TGI [27] | TGI [28] | TGI [29] | TGI [30] | TGI [31] | TGI [32] | TGI [33] | TGI [34] | TGI [35] | TGI [36] | TGI [37] | TGI [38] | TGI [39] | TGI [40] | TGI [41] | TGI [42] | TGI [43] | TGI [44] | TGI [45] | TGI [47] | TGI [48] | TGI [49] | TGI [50] | TGI [51] | TGI [52] | TGI [53]

CN(C)CCNC(=O)NC[C@H]1CC[C@@H]2[C@H](O1)c1cc(C(F)(F)F)ccc1N[C@H]2c1ccccc1
0.0416 µM: TGI [28]
active: GI50 [1] 0.124 µM | GI50 [54] 0.0803 µM | GI50 [2] 0.375 µM | GI50 [3] 0.128 µM | GI50 [4] 0.0218 µM | GI50 [5] 0.036 µM | GI50 [6] 0.171 µM | GI50 [7] 0.152 µM | GI50 [9] 0.387 µM | GI50 [11] 0.0394 µM | GI50 [12] 0.235 µM | GI50 [13] 0.261 µM | GI50 [55] 0.0932 µM | GI50 [15] 0.163 µM | GI50 [56] 0.0649 µM | GI50 [17] 0.0425 µM | GI50 [20] 0.0193 µM | GI50 [21] 0.0375 µM | GI50 [22] 0.223 µM | GI50 [57] 0.0398 µM | GI50 [23] 0.0784 µM | GI50 [25] 0.37 µM | GI50 [26] 0.124 µM | GI50 [27] 0.036 µM | GI50 [28] 0.0204 µM | GI50 [29] 0.303 µM | GI50 [30] 0.113 µM | GI50 [31] 0.0289 µM | GI50 [32] 0.0894 µM | GI50 [33] 0.38 µM | GI50 [35] 0.0937 µM | GI50 [36] 0.128 µM | GI50 [58] 0.0296 µM | GI50 [37] 0.056 µM | GI50 [39] 0.0634 µM | GI50 [40] 0.325 µM | GI50 [41] 0.0314 µM | GI50 [42] 0.0533 µM | GI50 [43] 0.0298 µM | GI50 [44] 0.289 µM | GI50 [45] 0.168 µM | GI50 [46] 0.0696 µM | GI50 [47] 0.0325 µM | GI50 [49] 0.279 µM | GI50 [50] 0.206 µM | GI50 [51] 0.0883 µM
17.7 µM: TGI [3]
1.98 µM: TGI [26]
0.057 µM: TGI [31]
28.7 µM: TGI [53]
16.3 µM: TGI [13]
0.0389 µM: TGI [20]
0.131 µM: TGI [5]
13.8 µM: TGI [12]
27 µM: TGI [24]
11.7 µM: TGI [55]
31.3 µM: TGI [38]
0.443 µM: TGI [45]
18.1 µM: TGI [54] | TGI [17]
10.8 µM: TGI [25] | TGI [35]
85.6 µM: TGI [18]
16.9 µM: TGI [1]
12 µM: TGI [29]
23.1 µM: TGI [48]
0.193 µM: TGI [46]
16.4 µM: TGI [44]
12.9 µM: TGI [40]
0.0736 µM: TGI [43]
11.8 µM: TGI [36]
15 µM: TGI [9]
18.2 µM: TGI [19]
0.0458 µM: TGI [4]
2.06 µM: TGI [6]
13.3 µM: TGI [23]
19 µM: TGI [52]
16.6 µM: TGI [39]
0.257 µM: TGI [42]
0.164 µM: TGI [21]
26.3 µM: TGI [22]
0.0647 µM: TGI [58]
0.37 µM: TGI [57]
19.3 µM: TGI [15]
0.156 µM: TGI [11]
14.5 µM: TGI [37]
12.7 µM: TGI [33]
18.7 µM: TGI [51]
10.4 µM: TGI [30]
17.6 µM: TGI [8]
0.0923 µM: TGI [41]
inactive: GI50 [8] 1.17 µM | GI50 [10] 4.3 µM | GI50 [16] 11.3 µM | GI50 [18] 20 µM | GI50 [19] 0.618 µM | GI50 [24] 10.5 µM | GI50 [38] 5.12 µM | GI50 [48] 2.76 µM | GI50 [52] 0.528 µM | GI50 [53] 14 µM
4.69 µM: TGI [49]
23.5 µM: TGI [16]
14 µM: TGI [56]
0.13 µM: TGI [27]
0.0824 µM: TGI [47]
16 µM: TGI [32]
15.1 µM: TGI [2]
16.1 µM: TGI [50]
18.9 µM: TGI [10]
16.2 µM: TGI [7]
